According to patent publication US20090082408A1, “NOVEL HETEROCYCLIC DERIVATIVES” (priority 2005, published 2009):
Where a name gives a salt, the structure may show the parent alone.

Columns and labels:
[1] = system: streptozotocin induced diabetic mice; experiment: Antidiabetic activity in streptozotocin induced diabetic mice; assay type: in vivo; details: 50 mg/kg body weight, oral route, 7 days, female Swiss albino mice, fasted 6 hours
Procedure: Antidiabetic Activity in Streptozotocin Induced Diabetic Mice
Female Swiss albino mice, at the age of 10 weeks were used in the study. Diabetes was induced in the animals by injecting streptozotocin by i.p. route at a dose of 200 mg/kg body weight. 48 hours after streptozotocin administration, the animals were kept fasting for 6 hours. Subsequently blood was collected, plasma separated and the glucose was estimated. Animals showing greater than 200 mg/dl glucose levels were considered as diabetic and these animals were randomly distributed into various groups. The example 2 listed in the table 2 was administered at a dose of 50-mg/kg body weight by oral route for 7 days. Later the animals were fasted for 6 hours, the blood was collected and the plasma was separated. Biochemical estimations like glucose, cholesterol and triglycerides were carried out using the plasma. The effect of the compounds mentioned in the table was expressed in terms of percentage reduction in biochemical values as compared to the control group.

[2] = system: 3T3-L1 cells; experiment: Glucose uptake assay using 3T3-L1 cells; assay type: cell-based; details: 14C deoxyglucose uptake in differentiated 3T3-L1 adipocytes; 1 μM for 72 hours; relative to reference compound BLX-1002
Procedure: Glucose Uptake Assay Using 3T3-L1 Cells
3T3-L1 cells were differentiated by the addition of differentiation cocktail (72 μg/ml insulin, 0.5 mM IBMX, 400 ng/ml Dexamethasone) for 4 days and were later fed with media without the differentation cocktail for 7-8 days. After differentiation the cells were incubated with the either the reference compound BLX-1002 or with the compounds listed in the table 1 at 1 μM concentrations for 72 hours, and the glucose uptake assay was carried out for 10 minutes by the addition of KRP buffer supplemented with 2.5 μCi/ml ^14C deoxy glucose. Stimulation Index is defined as the amount of ^14C Deoxyglucose uptake induced by 1 μM of BLX-1002 incubated for 72 hours in an assay condition as per the protocol described above with differentiated 3T3-L1 adipocytes. The values for compounds mentioned in table-1 are with reference to the stimulation index of reference compound BLX-1002.

Compound | % Reduction Glucose ([1]; plasma glucose vs control group) [%] | % Reduction Triglyceride ([1]; plasma triglyceride vs control group) [%] | Stimulation Index [2]
COC(=O)[C@@H](N)Cc1ccc(Oc2ccc(Nc3ccccn3)cc2)cc1 [Example 2, Methyl (2S)-2-amino-3-{4-[4-(pyridin-2-ylamino)phenoxy]phenyl}propanoate dihydrochloride] | 52.4 | 49.6 | 
COC(=O)C(N)Cc1ccc(Oc2ccc(Nc3ccccn3)cc2)cc1 (stereo not drawn) [Example 1, Methyl-2-amino-3-{4-[4-(pyridin-2-ylamino)phenoxy]phenyl}propionate dihydrochloride] |  |  | 1.10
